Consider three compounds from PMC3820577, “A High-Throughput Screen against Pantothenate Synthetase (PanC) Identifies 3-Biphenyl-4-Cyanopyrrole-2-Carboxylic Acids as a New Class of Inhibitor with Activity against Mycobacterium tuberculosis” (PLoS ONE, 2013).

Values after ≈ are worked out from the molar mass of the structure shown. Where a name gives a salt, the structure may show the parent alone. Read-outs that look alike come from different tables or passages of the source.

Series [1] addresses T1, PanCMTB (Mycobacterium tuberculosis, UniProt P9WIL5).
T1 construct: 6X-Histidine (N); made in house; host or cells: E. coli BL21(ΔE3), vector pET28b+
Kind of series: High-throughput single-timepoint fluorescence assay for PanCMTB activity (HTS and CRC). The conditions noted are these: for inhibition of the reaction: control inhibitor. It counts as biochemical. Here is the method: The activity of recombinant PanCMTB was measured, as previously described. Briefly, compounds or carrier DMSO alone were incubated with PanCMTB, the coupling enzymes, and their reagents for five minutes. The reaction was then initiated by addition of the PanCMTB substrates, pantoate and β-alanine. The reaction was conducted in wells of a black clear-bottomed microplate containing a final volume of 40 µL per well. The final concentrations were 0.4 mM NADH, 10 mM ATP, 1 mM pantoate, 5 mM β-alanine, 1 mM phosphoenol pyruvate (PEP-K), 10 mM MgCl2, 2% DMSO, 1 µg/mL of PanC, and 18 U/mL each of myokinase, pyruvate kinase and lactate dehydrogenase in 100 mM HEPES pH 7.8. The plate was immediately transferred to a SpectraMax micro-plate reader and the rate of NADH depletion was monitored by measuring the absorbance at 340 nm every 20 s for a total of 20 min.
The kinetic NADH depletion assay was initiated as described above. After 30 minutes 10 µL of solution containing fluorescent reagents was added to each well. The final 50 µL reaction contained 12.5 U/mL of diaphorase and 5 mM resazurin. After thorough mixing, the plate was transferred to a micro-plate reader and the level of resulting NADH-dependent resorufin determined by measuring fluorescence (excitation and emission filters set at […], respectively).
HTS library sets of individual compounds were plated at 1 mM - diluted first into HEPES and finally into the assay for a final assay concentration (FAC) of 20 µM. For concentration response curves (CRCs), the compounds were plated in single wells at 10 mM and diluted 3-fold across 9 adjacent wells in a row. Serial dilutions were made in 100% DMSO to ensure accurate concentrations of compound across the series. This entire plate was then treated in the same format as the HTS library plates, for FACs ranging from 200 µM- 0.01 µM in 2% DMSO (details provided in Text S1 and shown in Figure S3).

Series [2] addresses T1, PanCMTB. Kind of series: Low-throughput kinetic NADH depletion assay for PanCMTB, mode of inhibition. Type of series: biochemical. As to conditions: for mode of inhibition / Ki: with respect to pantoate; for Ki: read-out: Ki inhibition constant; for α (parameter of mixed inhibition equation): with respect to the substrate pantoate.
Series [3] concerns M. tuberculosis H37Rv (RvS). The experiment in a line: microbe, parasite or virus in culture. Type of series: cell-based, Mycobacterium tuberculosis.
The test system of series [4] is PanC-TetONM strain. The experiment in a line: microbe, parasite or virus in culture. Type of series: cell-based, Mycobacterium tuberculosis.
Series [5] deals with Vero cells. Type of series: cell-based. As to conditions: African green monkey, 48 h. Here is the method: Cytotoxicity was measured against the African green monkey adult kidney cell line (Vero). Vero cells were plated at 25,000 cells/mL in black 96-well assay plates pre-populated with compound dilutions and controls. Cells were incubated in a humidified 5% CO2 environment at 37°C for 48 h; intracellular ATP levels were measured using CellTiter-Glo®Reagent (Promega, Madison, WI). Luminescence was measured using a Victor 2 plate reader and percentage inhibition of growth calculated. Results were expressed as toxicity concentration (TC50) = concentration of compound required to inhibit growth by 50%.

Series [6] relates to HeLa cells. It counts as cell-based. As to conditions: human.
In series [7] the target is T1, PanCMTB. The arrangement: method as in PMID 17175524. As to conditions: read-out: inhibition constant; cited from earlier work.
Where [8] appears, read: Mycobacterium tuberculosis, H37RV, 144 h.
The mark [9] stands for this setting: Mycobacterium tuberculosis, 144 h.

T1 sequence (P9WIL5 whole entry, looked up): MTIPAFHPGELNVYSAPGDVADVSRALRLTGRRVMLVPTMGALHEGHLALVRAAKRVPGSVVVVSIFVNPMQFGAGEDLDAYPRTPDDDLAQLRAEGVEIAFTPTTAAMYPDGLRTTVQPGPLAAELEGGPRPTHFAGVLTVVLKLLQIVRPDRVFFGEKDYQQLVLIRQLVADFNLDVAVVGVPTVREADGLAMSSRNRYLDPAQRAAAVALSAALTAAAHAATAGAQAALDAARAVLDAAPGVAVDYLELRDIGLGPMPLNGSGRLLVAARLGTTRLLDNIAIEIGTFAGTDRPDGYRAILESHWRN

With `CCc1c(C#N)c(-c2ccc(-c3ccc(C#N)cc3)cc2)c(C(=O)O)n1C` [compound 2], the EC50 in series [1] is 4 µM. The mode of inhibition result in series [2] was “competitive inhibition”. In series [2], the Ki was found to be 0.297 µM. In series [2], the “α (parameter of mixed inhibition equation)” value is on record as 78. In addition, the MIC50 in series [3] worked out at 54 µM (≈ 19.2 µg/mL); in series [3] (setting [8]) it was 54 µM (≈ 19.2 µg/mL); in series [4] it was 24 µM (≈ 8.53 µg/mL); in series [4] (Mycobacterium tuberculosis) it was 53 µM (≈ 18.8 µg/mL); in series [4] (setting [9]), 24 µM (≈ 8.53 µg/mL). In series [5], the TC50 came out at 96 µM. Besides, the “average TC50” value in series [6] stood at 111 µM.
Consider `CCN(CC)CCOC(=O)C(Cc1cccc2ccccc12)CC1CCCO1` (stereo not drawn) [nafronyl oxalate, reference compound], for which the “inhibition of the reaction” value was around 80% in series [1] (higher of two control concentrations) and around 50% in series [1] (lower of two control concentrations). Moreover, the Ki in series [7] was around 75 µM.
`CCSc1c(C#N)c(-c2ccc(-c3ccccc3)cc2)c(C(=O)O)n1C` [compound 1] displayed an EC50 in series [1] of 1.8 µM. For the same compound, the mode of inhibition result in series [2] was “competitive inhibition”. Besides, the Ki in series [2] is 0.174 µM. In series [2], the “α (parameter of mixed inhibition equation)” value turned out to be 128. The MIC50 in series [3] came to 115 µM (≈ 41.7 µg/mL); in series [3] (setting [8]), 115 µM (≈ 41.7 µg/mL); in series [4] (Mycobacterium tuberculosis), 111 µM (≈ 40.2 µg/mL); in series [4] (setting [9]), 69 µM (≈ 25 µg/mL). This compound came in with a TC50 in series [5] of 70 µM. The “average TC50” value in series [6] is reported as 179 µM.
